These results are taken from US20030171293A1, “Neuropeptide receptor and uses thereof” (Pfizer Inc., priority 2002, published 2003).

pEC50: −log10 of the molar value. Where a SMILES comes first, the peptide text is derived from it. Bridges are numbered along the chain shown (N, C = ends). [ ]: non-standard residue; d: D form. dTrp(2-Me) = Cc1[nH]c2ccccc2c1C[C@@H](N)C(=O)O; d2Nal = N[C@H](Cc1ccc2ccccc2c1)C(=O)O; Nle = CCCC[C@H](N)C(=O)O

The target in one experiment is T1, receptor MRGX2 (Homo sapiens, UniProt Q96LB1).
T1 construct: expressed in transfected cells; host or cells: host line such as HEK293 or CHO-K1, stably expressing Galpha15/Gqi-5
T1 sequence (Q96LB1 1-330): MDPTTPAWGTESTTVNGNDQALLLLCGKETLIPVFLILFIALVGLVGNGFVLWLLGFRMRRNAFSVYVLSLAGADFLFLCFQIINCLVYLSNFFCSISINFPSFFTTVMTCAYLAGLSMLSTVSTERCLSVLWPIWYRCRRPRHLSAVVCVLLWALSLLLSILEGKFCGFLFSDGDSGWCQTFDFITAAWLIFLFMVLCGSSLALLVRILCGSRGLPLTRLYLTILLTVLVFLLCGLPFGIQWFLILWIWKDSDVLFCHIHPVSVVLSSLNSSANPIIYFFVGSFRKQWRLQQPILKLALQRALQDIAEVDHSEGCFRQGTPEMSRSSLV
Kind of experiment: Functional assay measuring intracellular calcium mobilisation (FLIPR). The following applies: for pEC50: Preliminary EC50 data for receptor MRGX2, transiently transfected cells, Fluo3 calcium response; for response of MRGX2 receptor: at a concentration of 1 μM. Type of experiment: cell-based.

The next experiment deals with food intake. The settings on record: i.c.v., free feeding rats; maximal response at 1 nmol dose; cited from earlier work.
The test system of a further experiment is guinea pig ileum. The following applies: GPI assay; cited from earlier work.

For orientation: pEC50 means the negative decadic logarithm of the EC50, by convention in mol/L.

Description for receptor MRGX2: 5×10^6 cells of a suitable host cell line, chosen to express a low number of endogenous receptors (e.g. HEK293 or CHO-K1) and engineered to stably express Gα15/Gqi-5, were transiently transfected with 7.5 μg of cDNA encoding receptor MRGX2 in a suitable mammalian cell expression vector, or vector alone, using Lipofectamine Plus® reagent (Gibco BRL) as per the manufacturer's protocol. If the cells were intended for a ligand binding assay or microphysiometry, they were incubated for 24-72 hours post transfection, and then harvested. If a microtitre plate-based assay was intended, the cells were detached from the flask using Trypsin/EDTA solution (LTI) 24 hours post transfection, and seeded into e.g. a black sided, Poly-D-lysine-treated, 96-well plate (Becton Dickinson) at 5×10^4 cells/well density. The plates were left overnight to allow the cells to adhere to the bottom of the wells.
Fluorescence Imaging Plate Reader (FLIPR®) technology was employed as a means to detect activation of receptor MRGX2 by various potential GPCR agonists.
24 hrs post-transfection, the cells were detached from the flask using Trypsin/EDTA solution (LTI) and seeded into a black sided, Poly-D-lysine-treated, 96-well plate (Becton Dickinson) at 5×10^4 cells/well density. The plates were left overnight to allow the cells to adhere to the bottom of the wells. The medium was removed from the cells and replaced with 100 μl warm (37° C.) dye loading solution (50 μg Fluo3 (Molecular Probes) in 20 μl DMSO+20% pluronic acid in DMSO, added to 11 ml Dulbecco's Modified Eagles Medium containing 1× Probenecid (100× Probenecid—0.71 g Probenecid was dissolved in 5 ml 1 M NaOH and 5 ml Dulbeccos' Phosphate Buffered Saline (PBS), per plate; Probenecid (Molecular Probes) inhibits activity of the anion transport protein, thus improving dye loading). The plates were then incubated for 1 hr at 37° C. Plates were subsequently washed with 250 μl of wash buffer per well (5 ml 100× Probenecid stock+495 ml PBS, pH 7.4) 4 times. The plates were returned to the 37° C./5%CO2 incubator for 30 mins prior to processing within the FLIPR® instrument. The FLIPR® processing involved reading the fluorescence for all samples for 2 minutes; during this time the fluorescence baseline was determined for 10 seconds. The desired amount of compounds (i.e. potential GPCR agonists) was then automatically transferred to the wells and the fluorescence was continuously monitored for the remainder of the time. All compounds were diluted in wash buffer.

For the compound `C[C@@H](O)[C@@H]1NC(=O)[C@H](CCCCN)NC(=O)[C@@H](Cc2c[nH]c3ccccc23)NC(=O)[C@H](Cc2ccccc2)NC(=O)[C@@H](NC(=O)[C@H](N)Cc2ccccc2)CSSC[C@@H](C(=O)N[C@H](CO)[C@@H](C)O)NC1=O` [Octreotide], at receptor MRGX2, the pEC50 is less than 5.00.

On to `NCCC[C@@H](NC(=O)[C@@H]1CCCN1C(=O)[C@@H]1CSSCCC(=O)N[C@@H](Cc2ccc(O)cc2)C(=O)N[C@@H](Cc2ccccc2)C(=O)N[C@@H](CCC(N)=O)C(=O)N[C@@H](CC(N)=O)C(=O)N1)C(=O)NCC(N)=O` [(Deamino-Cysl,D-Orn^8) Vasopressin], for which, on receptor MRGX2, the pEC50 was less than 5.00. With α-MSH, the “response of MRGX2 receptor” value in the experiment with receptor MRGX2 is listed as “responds”.

On to `CC(C)C[C@H](NC(=O)CNC(=O)[C@H](CCC(=O)O)NC(=O)CNC(=O)[C@H](C)N)C(=O)N[C@@H](CC(N)=O)C(=O)N[C@@H](CO)C(=O)N[C@@H](CCC(N)=O)C(=O)N[C@@H](Cc1ccccc1)C(=O)N[C@@H](Cc1c[nH]c2ccccc12)C(=O)N[C@@H](CO)C(=O)N[C@@H](CC(C)C)C(=O)N[C@@H](C)C(=O)N[C@@H](C)C(=O)N1CCC[C@H]1C(=O)N[C@@H](CCC(N)=O)C(=O)N[C@@H](CCCNC(=N)N)C(=O)N[C@@H](Cc1ccccc1)C(N)=O` [NPAF] (H-AGEGLNSQFWSLAAPQRF-NH2; N-terminus assumed), for which the negative-log EC50 (pEC50) at receptor MRGX2 is less than 5.00. Take `CCCC[C@@H]1NC(=O)[C@@H](NC(C)=O)CSSC[C@@H](C(N)=O)NC(=O)CNC(=O)[C@H](Cc2c[nH]c3ccccc23)NC(=O)[C@H](CCCNC(=N)N)NC(=O)[C@@H](Cc2ccc3ccccc3c2)NC(=O)[C@H](Cc2c[nH]cn2)NC(=O)[C@H](CCCNC(=N)N)NC1=O` [HS024, (Acetyl-Cys^3,Nle^4,Arg^5,D-2-Nal^7,Cys^11)-α-MSH (3-11) amide] (Ac-C[Nle]RH[d2Nal]RWGC-NH2; disulfide 1-9 (inferred)): in the experiment with food intake, the “effect on food intake” value is “dose dependant increase in food intake”.

Regarding `CC(=O)N[C@H]1CSSC[C@@H](C(=O)N2CCC[C@H]2C(=O)N2CCC[C@H]2C(=O)N[C@@H](CCCCN)C(=O)N[C@@H](CC(=O)O)C(N)=O)NC(=O)CNC(=O)[C@H](Cc2c[nH]c3ccccc23)NC(=O)[C@H](CCCNC(=N)N)NC(=O)[C@@H](Cc2ccc3ccccc3c2)NC(=O)[C@H](Cc2c[nH]cn2)NC(=O)[C@H](CCC(=O)O)NC1=O` [HS014] (Ac-CEH[d2Nal]RWGCPPKD-NH2; disulfide 1-8; N-terminus and C-terminus assumed), the pEC50 at receptor MRGX2 was less than 5.00. As for `CC(C)C[C@H](NC(=O)[C@@H](N)CO)C(=O)N[C@@H](C)C(=O)N[C@@H](C)C(=O)N1CCC[C@H]1C(=O)N[C@@H](CCC(N)=O)C(=O)N[C@@H](CCCNC(=N)N)C(=O)N[C@@H](Cc1ccccc1)C(N)=O` [NPSF] (H-SLAAPQRF-NH2), on receptor MRGX2, the pEC50 is less than 5.00. On to γ-MSH, for which the “response of MRGX2 receptor” value with receptor MRGX2 was “responds”.

In the case of `CC[C@H](C)[C@H](NC(=O)[C@H](CCCNC(=N)N)NC(=O)[C@H](CCCNC(=N)N)NC(=O)[C@H](CC(C)C)NC(=O)[C@H](Cc1ccccc1)NC(=O)CNC(=O)CNC(=O)[C@@H](N)Cc1ccc(O)cc1)C(=O)N[C@@H](CCCNC(=N)N)C(=O)N1CCC[C@H]1C(=O)N[C@@H](CCCCN)C(=O)N[C@@H](CC(C)C)C(=O)N[C@@H](CCCCN)C(=O)N[C@@H](Cc1c[nH]c2ccccc12)C(=O)N[C@@H](CC(=O)O)C(=O)N[C@@H](CC(N)=O)C(=O)N[C@@H](CCC(N)=O)C(=O)O` [Dynorphin A], in the experiment on guinea pig ileum, the “potency relative to [Leu]-enkephalin” value is reported as 700 times, the “potency relative to normorphine” value is listed as “about 200 times” and the “potency relative to β-endorphin” value is reported as 50 times. At receptor MRGX2, the pEC50 is 5.73. As for `CC(C)C[C@H](NC(=O)[C@H](CCCCN)NC(=O)[C@H](CCCN=C(N)N)NC(=O)[C@H](C)NC(=O)[C@H](CO)NC(=O)[C@H](CCCCN)NC(=O)[C@H](CCCN=C(N)N)NC(=O)[C@H](C)NC(=O)CNC(=O)[C@@H](NC(=O)[C@H](Cc1ccccc1)NC(=O)CNC(=O)CNC(=O)[C@@H](N)Cc1ccccc1)[C@@H](C)O)C(=O)N[C@@H](C)C(=O)N[C@@H](CC(N)=O)C(=O)N[C@@H](CCC(N)=O)C(=O)O` [Nociceptin], the pEC50 on receptor MRGX2 is less than 5.00.

`Cc1[nH]c2ccccc2c1C[C@@H](NC(=O)[C@@H](N)Cc1cnc[nH]1)C(=O)N[C@@H](C)C(=O)N[C@@H](Cc1c[nH]c2ccccc12)C(=O)N[C@H](Cc1ccccc1)C(=O)N[C@@H](CCCCN)C(N)=O` [Hexarelin] (H-H[dTrp(2-Me)]AW[dF]K-NH2): the pEC50 at receptor MRGX2 is 5.02.
